Assays:
[1] = system: Apple scab fungus (Venturia inaequalis); assay: Apple scab control test (foliar spray on apple seedlings); assay type: in vivo; settings: 125 ppm active ingredient, sprayed on apple seedlings (variety Orin) before inoculation, vs untreated
Protocol: The dilution was sprayed to apple seedlings (variety “Orin”, 3 to 4 leaf stage) grown in clay pots. […] The control value was calculated by the following equation. [formula]

[2] = system: Tomato late blight fungus (Phytophthora infestans); assay: whole plant or invertebrate; assay type: in vivo; settings: foliar, 96 h, read-out: control value
[3] = system: wheat leaf rust fungus (Puccinia recondita); assay: Wheat leaf rust control test (foliar spray on wheat seedlings); assay type: in vivo; settings: 240 h, 125 ppm active ingredient, sprayed on wheat seedlings (variety Norin 61) before inoculation, 10 days, vs untreated
[4] = system: cucumber gray mold fungus (Botrytis cinerea); assay: Cucumber gray mold control test (foliar spray on cucumber seedlings); settings: in Cucumis sativus, 96 h, read-out: control value

Measured: pest or weed control at 125 ppm

Cc1cn(CCCOc2ccc(C(=N)N)cc2)c(=N)n1CCCOc1ccc(C(=N)N)cc1 [compound 114]
≥ 75%: all assays above

N=C(N)NCCCCCCCCNC(=N)NCCC=Cc1ccc(C(=N)N)cc1 [compound 157]
≥ 75%: all assays above

N=C(N)NCCCCCCCCNC(=N)NCCCc1ccc(C(=N)N)cc1 [compound 169]
≥ 75%: all assays above

N=C(N)c1ccc(OCCCCn2ccn(CCCOc3ccc(C(=N)N)cc3)c2=N)cc1 [compound 40, 4-[4-[3-[3-(4-carbamimidoylphenoxy)propyl]-2-imino-imidazol-1-yl]butoxy]benzamidine]
≥ 75%: all assays above

N=C(N)NCCCCCCCCn1ccn(CCOc2ccc(C3=NCC(N)CN3)cc2)c1=N (centres unmarked) [compound 302]
≥ 75%: all assays above

N=C(N)NCCCCCCCCNC(=N)NCCCOc1ccc(C2=NCCCN2)cc1 [compound 192]
≥ 75%: all assays above

N=C(N)NCCCCCCCCNC(=N)NCCCc1ccc(C2=NCCCN2)cn1 [compound 273]
≥ 75%: all assays above

N=C(NCCCOc1ccc(C(=N)N)cc1)NCCCOc1ccc(C(=N)N)cc1 [compound 42, 4-[3-[[N-[3-(4-carbamimidoylphenoxy)propyl]carbamimidoyl]amino]propoxy]benzamidine]
≥ 75%: all assays above

N=C(N)NCCCCCCNC(=N)NCCCCOc1ccc(C(=N)N)cc1 [compound 136]
≥ 75%: all assays above

N=C(N)NCCCCCCCNC(=N)NCCCc1cc2cc(C(=N)N)ccc2o1 [compound 34, 2-(3-(3-(7-guanidinoheptyl)guanidino)propyl)benzofuran-5-carboximidamide]
≥ 75%: all assays above

CNC(=N)c1ccc(OCCCCn2ccn(CCCOc3ccc(C(=N)N)cc3)c2=N)cc1 [compound 124]
≥ 75%: all assays above

CC1(C)CNC(c2ccc(OCCCCNC(=N)NCCCCCCCCNC(=N)N)cc2)=N1 [compound 256]
≥ 75%: all assays above

N=C(N)NCCCCCCCCNC(=N)NCCCCOc1ccc(C2=NCC(N)CN2)cc1 (centres unmarked) [compound 279]
≥ 75%: all assays above

N=C(NCCCOCc1ccc(C(=N)N)cc1)NCCCOc1ccc(C(=N)N)cc1 [compound 142]
≥ 75%: all assays above

N=C(N)NCCCCCCCCNC(=N)NCCOc1ccc(C2=NCCCN2)cc1 [compound 240]
≥ 75%: all assays above

N=C(NCCCCCCCCNC1=NCCN1)NCCCOc1ccc(C(=N)N)cc1 [compound 298]
≥ 75%: all assays above

N=C(N)NCCCCCCCCCNC(=N)NCCOc1ccc(C(=N)N)cc1 [compound 234]
≥ 75%: all assays above

N=C(N)NCCCCCCCCNC(=N)NCCCOc1ccc(C(=N)N)cc1 [compound 230]
≥ 75%: all assays above

N=C(N)NCCCCCCCCNC(=N)NCCCOCc1ccc(C(=N)N)cc1 [compound 145]
≥ 75%: all assays above

N=C(N)NCCCCCCCn1ccn(CCCOc2ccc(C3=NCCCN3)cc2)c1=N [compound 206]
≥ 75%: all assays above

N=C(N)NCCCCCCCCNC(=N)NCCCCOc1ccc(C(=N)N)cc1 [compound 188]
≥ 75%: all assays above

N=C(NCCCCOc1ccc(C(=N)N)cc1)NCCCCOc1ccc(C(=N)N)cn1 [compound 194]
≥ 75%: all assays above

Cc1cn(CCCCOc2ccc(C(=N)N)cc2)c(=N)n1CCCCOc1ccc(C(=N)N)cc1 [compound 107]
≥ 75%: all assays above

N=C(N)NCCCCCCCCNC(=N)NCCCCOc1ccc(C(=N)N)cn1 [compound 61, 6-[4-[[N-(8-guanidinooctyl)carbamimidoyl]amino]butoxy]pyridine-3-carboxamidine]
≥ 75%: all assays above

N=C(N)NCCCCCCCCNC(=N)NCCOCc1ccc(C2=NCCCN2)cc1 [compound 220]
≥ 75%: all assays above

N=C(N)NCCCCCCCNC(=N)NCCCCOc1ccc(C2=NCC(N)CN2)cc1 (centres unmarked) [compound 277]
≥ 75%: all assays above

N=C(N)NCCCCCCCCNC(=N)NCCCOc1ccc(C(=N)N)cc1Cl [compound 112]
≥ 75%: all assays above

N=C(N)NCCCCCCCN1CCN(CCCCCCCNC(=N)N)C1=N [compound 8, 1-[7-[3-(7-guanidinoheptyl)-2-imino-imidazolidin-1-yl]heptyl]guanidine]
≥ 75%: all assays above

N=C(N)NCCCCCCCCCNC(=N)NCCOc1ccc(C2=NCCCN2)cc1 [compound 242]
≥ 75%: all assays above

N=C(NCC/C=C/c1ccc(C(=N)N)cc1)NCC/C=C/c1ccc(C(=N)N)cc1 [compound 151]
≥ 75%: all assays above

N=C(N)NCCCCCCCCNC(=N)NCCCCOc1ccc(C2=NCCCCN2)cc1 [compound 254]
≥ 75%: all assays above

N=C(N)NCCCCCCCCNC(=N)NCCC#Cc1ccc(C(=N)N)cc1 [compound 153]
≥ 75%: all assays above

N=C(N)c1ccc(OCCCn2ccn(CCCc3cc4cc(C(=N)N)ccc4o3)c2=N)cc1 [compound 126]
≥ 75%: all assays above

N=C(N)NCCCCCCCNC(=N)NCCCOCc1ccc(C(=N)N)cc1 [compound 179]
≥ 75%: all assays above

CN(CCCOc1ccc(C(=N)N)cc1)C(=N)NCCCCCCCCNC(=N)N [compound 128]
≥ 75%: all assays above

N=C(N)NCCCCCCCCNC(=N)NCCCCOc1ccc(C2=NCCN2)cc1 [compound 246]
≥ 75%: all assays above

N=C(N)NCCCCCCCNC(=N)NCCC=Cc1ccc(C(=N)N)cc1 [compound 163]
≥ 75%: all assays above

N=C(N)NCCCCCCCNC(=N)NCCCOc1ccc(C(=N)N)cc1 [compound 29, 4-[3-[[N-(7-guanidinoheptyl)carbamimidoyl]amino]propoxy]benzamidine]
≥ 75%: all assays above

Source: patent publication US10111437B2, “Substituted guanidines as fungicides” (Nippon Soda Co., Ltd., priority 2015, dated 2018)
